{
  "source": "patent US20260053812A1",
  "about": "“METHODS OF TREATING HYPERTENSION WITH A COMBINATION OF AN ALDOSTERONE SYNTHASE INHIBITOR AND A DIURETIC” (Mineralys Therapeutics, Inc., priority 2022, published 2026)",
  "test": "Adverse events (TEAEs, SAEs, AESI; Safety Analysis Set)",
  "key": {"[1]": {"details": "Table 43, Part 1, 100 mg QD (N = 31)"}},
  "note": "Values joined by “and” are separate entries in the source; they are usually repeats but may differ in a detail not shown here. Identical values can stand only once.",
  "data": [
    {"molecule": "CC(=O)N[C@H]1CC[C@H](NC(=O)CN2CCN(c3nncc(-c4ccc(C)cc4)n3)CC2)CC1", "note": "[Compound A HBr]", "values": [
      {"measurement": "TEAE leading to permanent discontinuation from study drug, Vascular disorders, %", "setting": "Part 1, Active (N = 133)", "value": "(2.3) %"},
      {"measurement": "Subjects with TEAEs considered at least possibly related to study drug", "setting": "Part 1, active drug, listed as lorundrostat", "value": "27 (20.3%) subjects (%)"},
      {"measurement": "AE requiring dose titration: Hyperkalemia", "setting": "Part 1 All active, N 159", "value": "6 (3.8%)"},
      {"measurement": "AE requiring dose titration: Hyponatremia", "setting": "Part 1 All active, N 159", "value": 0},
      {"measurement": "AE requiring dose titration: Other possibly related", "setting": "Part 1 All active, N 159", "value": 0},
      {"measurement": "AE requiring dose titration: Other unrelated", "setting": "Part 1 All active, N 159", "value": "1 (0.6%)"},
      {"measurement": "AE requiring study drug discontinuation: Hyperkalemia", "setting": "Part 1 All active, N 159", "value": "6 (3.8%)"},
      {"measurement": "AE requiring study drug discontinuation: Hyponatremia", "setting": "Part 1 All active, N 159", "value": 0},
      {"measurement": "AE requiring study drug discontinuation: Hypotension", "setting": "Part 1 All active, N 159", "value": "2 (1.2%)"},
      {"measurement": "AE requiring study drug discontinuation: Other possibly related", "setting": "Part 1 All active, N 159", "value": "1 (0.6%)"},
      {"measurement": "AE requiring study drug discontinuation: Other unrelated", "setting": "Part 1 All active, N 159", "value": "11 (6.9%)"},
      {"measurement": "Deaths", "setting": "Part 1 or Part 2", "value": "No deaths"},
      {"measurement": "Subjects with TEAE resulting in dose modification", "setting": "Part 2", "value": 7, "unit": "subjects"},
      {"measurement": "Muscle spasms", "setting": "Part 2 100 mg QD cohort", "value": "3 (9.7%) subjects (%)"},
      {"measurement": "Subjects with ≥1 moderate on-treatment TEAE", "setting": "Part 2 100 mg QD cohort", "value": "12 (38.7%) subjects (%)"},
      {"measurement": "AE requiring dose titration: Hyperkalemia", "setting": "Part 2 100 mg QD, N 31", "value": "1 (3.2%)"},
      {"measurement": "AE requiring dose titration: Hyponatremia", "setting": "Part 2 100 mg QD, N 31", "value": "1 (3.2%)"},
      {"measurement": "AE requiring dose titration: Other possibly related", "setting": "Part 2 100 mg QD, N 31", "value": 0},
      {"measurement": "AE requiring dose titration: Other unrelated", "setting": "Part 2 100 mg QD, N 31", "value": 0},
      {"measurement": "AE requiring study drug discontinuation: Hyperkalemia", "setting": "Part 2 100 mg QD, N 31", "value": 0},
      {"measurement": "AE requiring study drug discontinuation: Hyponatremia", "setting": "Part 2 100 mg QD, N 31", "value": "1 (3.4%)"},
      {"measurement": "AE requiring study drug discontinuation: Hypotension", "setting": "Part 2 100 mg QD, N 31", "value": "1 (2.8%)"},
      {"measurement": "AE requiring study drug discontinuation: Other possibly related", "setting": "Part 2 100 mg QD, N 31", "value": 0},
      {"measurement": "AE requiring study drug discontinuation: Other unrelated", "setting": "Part 2 100 mg QD, N 31", "value": "1 (2.8%)"},
      {"measurement": "Subjects with any On-treatment TEAEs leading to withdrawal from study drug, %", "setting": "Part 2, 100 mg QD (N = 31)", "value": 6.5, "unit": "%"},
      {"measurement": "TEAE leading to permanent withdrawal from study drug, Glomerular filtration rate decreased, %", "setting": "Part 2, 100 mg QD (N = 31)", "value": 3.2, "unit": "%"},
      {"measurement": "TEAE leading to permanent withdrawal from study drug, Hyponatraemia, %", "setting": "Part 2, 100 mg QD (N = 31)", "value": 3.2, "unit": "%"},
      {"measurement": "TEAE leading to permanent withdrawal from study drug, Investigations, %", "setting": "Part 2, 100 mg QD (N = 31)", "value": 3.2, "unit": "%"},
      {"measurement": "TEAE leading to permanent withdrawal from study drug, Metabolism and nutrition disorders, %", "setting": "Part 2, 100 mg QD (N = 31)", "value": 3.2, "unit": "%"},
      {"measurement": "TEAE leading to permanent withdrawal from study drug, Muscle spasms, %", "setting": "Part 2, 100 mg QD (N = 31)", "value": 3.2, "unit": "%"},
      {"measurement": "TEAE leading to permanent withdrawal from study drug, Musculoskeletal and connective tissue disorders, %", "setting": "Part 2, 100 mg QD (N = 31)", "value": 3.2, "unit": "%"},
      {"measurement": "Subjects with TEAEs considered at least possibly related to study drug", "setting": "Part 2, lorundrostat", "value": "9 subjects (%) and 9 (29.0%) subjects (%)"},
      {"measurement": "On-treatment TEAE, Chronic kidney disease, %", "setting": "[1]", "value": "(6.5) %"},
      {"measurement": "On-treatment TEAE, Chronic kidney disease, Mild, %", "setting": "[1]", "value": "(6.5) %"},
      {"measurement": "On-treatment TEAE, Diarrhoea, %", "setting": "[1]", "value": "(6.5) %"},
      {"measurement": "On-treatment TEAE, Diarrhoea, Mild, %", "setting": "[1]", "value": "(6.5) %"},
      {"measurement": "On-treatment TEAE, Dizziness, %", "setting": "[1]", "value": "(6.5) %"},
      {"measurement": "On-treatment TEAE, Dizziness, Mild, %", "setting": "[1]", "value": "(6.5) %"},
      {"measurement": "On-treatment TEAE, Gastrointestinal disorders, %", "setting": "[1]", "value": "(16.1) %"},
      {"measurement": "On-treatment TEAE, Gastrointestinal disorders, Mild, %", "setting": "[1]", "value": "(9.7) %"},
      {"measurement": "On-treatment TEAE, Gastrointestinal disorders, Moderate, %", "setting": "[1]", "value": "(6.5) %"},
      {"measurement": "On-treatment TEAE, Hyperkalaemia, %", "setting": "[1]", "value": "(25.8) %"},
      {"measurement": "On-treatment TEAE, Hyperkalaemia, Mild, %", "setting": "[1]", "value": "(9.7) %"},
      {"measurement": "On-treatment TEAE, Hyperkalaemia, Moderate, %", "setting": "[1]", "value": "(16.1) %"},
      {"measurement": "On-treatment TEAE, Hyponatraemia, %", "setting": "[1]", "value": "(6.5) %"},
      {"measurement": "On-treatment TEAE, Infections and infestations, %", "setting": "[1]", "value": "(16.1) %"},
      {"measurement": "On-treatment TEAE, Infections and infestations, Mild, %", "setting": "[1]", "value": "(6.5) %"},
      {"measurement": "On-treatment TEAE, Infections and infestations, Moderate, %", "setting": "[1]", "value": "(9.7) %"},
      {"measurement": "On-treatment TEAE, Investigations, %", "setting": "[1]", "value": "(6.5) %"},
      {"measurement": "On-treatment TEAE, Metabolism and nutrition disorders, %", "setting": "[1]", "value": "(32.3) %"},
      {"measurement": "On-treatment TEAE, Metabolism and nutrition disorders, Mild, %", "setting": "[1]", "value": "(6.5) %"},
      {"measurement": "On-treatment TEAE, Metabolism and nutrition disorders, Moderate, %", "setting": "[1]", "value": "(22.6) %"},
      {"measurement": "On-treatment TEAE, Muscle spasms, %", "setting": "[1]", "value": "(9.7) %"},
      {"measurement": "On-treatment TEAE, Muscle spasms, Moderate, %", "setting": "[1]", "value": "(6.5) %"},
      {"measurement": "On-treatment TEAE, Musculoskeletal and connective tissue disorders, %", "setting": "[1]", "value": "(16.1) %"},
      {"measurement": "On-treatment TEAE, Musculoskeletal and connective tissue disorders, Mild, %", "setting": "[1]", "value": "(6.5) %"},
      {"measurement": "On-treatment TEAE, Musculoskeletal and connective tissue disorders, Moderate, %", "setting": "[1]", "value": "(9.7) %"},
      {"measurement": "On-treatment TEAE, Nausea, %", "setting": "[1]", "value": "(6.5) %"},
      {"measurement": "On-treatment TEAE, Nausea, Mild, %", "setting": "[1]", "value": "(6.5) %"},
      {"measurement": "On-treatment TEAE, Nervous system disorders, %", "setting": "[1]", "value": "(6.5) %"},
      {"measurement": "On-treatment TEAE, Nervous system disorders, Mild, %", "setting": "[1]", "value": "(6.5) %"},
      {"measurement": "On-treatment TEAE, Renal and urinary disorders, %", "setting": "[1]", "value": "(6.5) %"},
      {"measurement": "On-treatment TEAE, Renal and urinary disorders, Mild, %", "setting": "[1]", "value": "(6.5) %"},
      {"measurement": "On-treatment TEAE, Urinary tract infection, %", "setting": "[1]", "value": "(6.5) %"},
      {"measurement": "Subjects with any On-treatment TEAEs, Mild, %", "setting": "[1]", "value": "(19.4) %"},
      {"measurement": "Subjects with any On-treatment TEAEs, Moderate, %", "setting": "[1]", "value": "(38.7) %"},
      {"measurement": "Subjects with any On-treatment TEAEs, Severe, %", "setting": "[1]", "value": "(3.2) %"},
      {"measurement": "AE requiring dose titration: Hyperkalemia", "setting": "Total active, N 190", "value": "7 (4.1%)"},
      {"measurement": "AE requiring dose titration: Hyponatremia", "setting": "Total active, N 190", "value": "1 (0.5%)"},
      {"measurement": "AE requiring dose titration: Other possibly related", "setting": "Total active, N 190", "value": 0},
      {"measurement": "AE requiring dose titration: Other unrelated", "setting": "Total active, N 190", "value": "1 (0.5%)"},
      {"measurement": "AE requiring study drug discontinuation: Hyperkalemia", "setting": "Total active, N 190", "value": "6 (3.2%)"},
      {"measurement": "AE requiring study drug discontinuation: Hyponatremia", "setting": "Total active, N 190", "value": "1 (0.5%)"},
      {"measurement": "AE requiring study drug discontinuation: Hypotension", "setting": "Total active, N 190", "value": "3 (1.6%)"},
      {"measurement": "AE requiring study drug discontinuation: Other possibly related", "setting": "Total active, N 190", "value": "1 (0.5%)"},
      {"measurement": "AE requiring study drug discontinuation: Other unrelated", "setting": "Total active, N 190", "value": "12 (6.3%)"},
      {"measurement": "Subjects who developed orthostatic hypotension", "setting": "fall of 20 mmHg in SBP or 10 mmHg in DBP sitting to standing", "value": "three"},
      {"measurement": "Subjects with hypotension related to treatment", "setting": "two in 100 mg QD cohorts (Part 1, Part 2), one 12.5 mg BID, reversible with treatment cessation", "value": "three"},
      {"measurement": "Overall safety and tolerability", "setting": "whole study", "value": "safe and well tolerated"}
    ]}
  ]
}
